Assay results taken from patent US20220194936A1, “CRYSTALLINE FORMS OF N-(5-(5-((1R,2S)-2-FLUOROCYCLOPROPYL)-1,2,4-OXADIAZOL-3-YL)-2-METHYLPHENYL)IMIDAZO[1,2-A]PYRIDINE-3-CARBOXAMIDE” (Novartis AG, priority 2019, published 2022).

Key:
Type in all cases: physicochemical
[1] = Hygroscopicity by DVS at 25° C.
Description: The hygroscopicity of 5-(5-((1R,2S)-2-fluorocyclopropyl)-1,2,4-oxadiazol-3-yl)-2-methylphenyl)imidazo[1,2-a]pyridine-3-carboxamide Form A was evaluated by DVS at 25° C. and various RH values. The samples was examined by XRPD for physical stability determination.
The hygroscopicity of 5-(5-((1R,2S)-2-fluorocyclopropyl)-1,2,4-oxadiazol-3-yl)-2-methylphenyl)imidazo[1,2-a]pyridine-3-carboxamide fumaric acid co-crystal was evaluated by DVS at 25° C. and various RH values. The samples was examined by XRPD for physical stability determination.

[2] = Crystal modification after equilibration in water for 2 weeks (XRPD); details: after 2 weeks in water
Description: 5-(5-((1R,2S)-2-fluorocyclopropyl)-1,2,4-oxadiazol-3-yl)-2-methylphenyl)imidazo[1,2-a]pyrindine-3-carboxamide Form A (10 mg) was placed in a vial containing water for 2 weeks and the sample was then examined by XRPD for physical stability determination. It was observed that after 2 weeks in water 5-(5-((1R,2S)-2-fluorocyclopropyl)-1,2,4-oxadiazol-3-yl)-2-methylphenyl)imidazo[1,2-a]pyridine-3-carboxamide Form A converted to 5-(5-((1R,2S)-2-fluorocyclopropyl)-1,2,4-oxadiazol-3-yl)-2-methylphenyl)imidazo[1,2-a]pyridine-3-carboxamide Form HB.
5-(5-((1R,2S)-2-fluorocyclopropyl)-1,2,4-oxadiazol-3-yl)-2-methylphenyl)imidazo[1,2-a]pyrindine-3-carboxamide Fumaric acid co-crystal (10 mg) was placed in a vial containing water for 2 weeks and the sample was then examined by XRPD for physical stability determination. No change in XRPD was observed after 2 weeks in water.

[3] = Evaluation of the effect of grinding and granulation; details: Grinding and granulation with added water or ethanol
Description: 5-(5-((1R,2S)-2-fluorocyclopropyl)-1,2,4-oxadiazol-3-yl)-2-methylphenyl)imidazo[1,2-a]pyridine-3-carboxamide Form A (10 mg) was placed in a container and ground with added water or ethanol.
5-(5-((1R,2S)-2-fluorocyclopropyl)-1,2,4-oxadiazol-3-yl)-2-methylphenyl)imidazo[1,2-a]pyridine-3-carboxamide fumaric acid co-crystal (10 mg) was placed in a container and ground with added water or ethanol.

[4] = Evaluation of Xenon light exposure (HPLC, XRPD, color); details: Xenon light (approx. 1200 kLuxh, 25° C.)
Description: (§1) 5-(5-((1R,2S)-2-fluorocyclopropyl)-1,2,4-oxadiazol-3-yl)-2-methylphenyl)imidazo[1,2-a]pyridine-3-carboxamide Form A (10 mg) was placed in a container and exposed to approximately 1200 kLuxh of Xenon light at 25° C. The sample was examined by XRPD for physical stability determination and by HPLC for chemical stability determination indicated by the presence of degradation products (DP). The HPLC method used is described in Example 13-1. The color (CL) of the samples was evaluated by visual observation.
as §1, with “Fumaric acid co-crystal” for “Form A”, “19-1.” for “13-1.”

[5] = Evaluation of humidity at elevated temperature (solid state, open vial, 75% RH, 1 week; HPLC, XRPD, color); details: for Bulk (XRPD): 50° C. and 80° C.
Description: (§2) (5-(5-((1R,2S)-2-fluorocyclopropyl)-1,2,4-oxadiazol-3-yl)-2-methylphenyl)imidazo[1,2-a]pyridine-3-carboxamide Form A (10 mg) was placed in an open vial in a 75% relative humidity (RH) chamber at 50° C. for one week and also in an open vial in a 75% relative humidity (RH) chamber at 80° C. for one week. The initial purity of (5-(5-((1R,2S)-2-fluorocyclopropyl)-1,2,4-oxadiazol-3-yl)-2-methylphenyl)imidazo[1,2-a]pyridine-3-carboxamide Form A was 99.7%.
The samples were examined by XRPD for physical stability determination and by HPLC for chemical stability determination indicated by the presence of degradation products (DP).
The HPLC method used is […]
The color (CL) of the samples was evaluated by visual observation.
as §2, with “fumaric acid co-crystal” for “Form A”
The samples were examined by XRPD for physical stability determination and by HPLC for chemical stability determination indicated by the presence of degradation products (DP). The HPLC method used is […]

| Desorporption. Weight % change ([1]; 0 % RH) | Sorption Weight % change ([1]; 0 % RH) | Desorporption. Weight % change ([1]; 10 % RH) | Sorption Weight % change ([1]; 10 % RH) | Desorporption. Weight % change ([1]; 20 % RH) | Sorption Weight % change ([1]; 20 % RH) | Desorporption. Weight % change ([1]; 30 % RH) | Sorption Weight % change ([1]; 30 % RH) | Desorporption. Weight % change ([1]; 40 % RH) | Sorption Weight % change ([1]; 40 % RH) | Desorporption. Weight % change ([1]; 50 % RH) | Sorption Weight % change ([1]; 50 % RH) | Sorption Weight % change ([1]; 60 % RH) | Desorporption. Weight % change ([1]; 70 % RH) | Sorption Weight % change ([1]; 70 % RH) | Desorporption. Weight % change ([1]; 80 % RH) | Sorption Weight % change ([1]; 80 % RH) | Desorporption. Weight % change ([1]; 90 % RH) | Sorption Weight % change ([1]; 90 % RH) | Crystal modification by XRPD [2] | SMILES | further results |
| --- | --- | --- | --- | --- | --- | --- | --- | --- | --- | --- | --- | --- | --- | --- | --- | --- | --- | --- | --- | --- | --- |
| 0.0000% | 0.0000% | 0.0167% | 0.0167% | 0.0501% | 0.0234% | 0.0768% | 0.0468% | 0.0802% | 0.0601% | 0.0735% | 0.0568% | 0.0868% | 0.1369% | 0.1169% | 0.1803% | 0.1436% | 0.2338% | 0.2104% | Form HB | Cc1ccc(-c2noc([C@H]3C[C@@H]3F)n2)cc1NC(=O)c1cnc2ccccn12 [Form A, N-(5-(5-((1R,2S)-2-fluorocyclopropyl)-1,2,4-oxadiazol-3-yl)-2-methylphenyl)imidazo[1,2-a]pyridine-3-carboxamide] | Desorporption. Weight % change ([1]; 60 % RH): 0.0969%; Change in solid state [3]: no change in solid state; Bulk (XRPD) [4]: Bulk (XRPD): No change; CL (color) [4]: No change; DP (%) degradation products, Bulk (HPLC) [4]: 0.06%; CL (color) ([5]; 50° C.): No change; DP (%) degradation products, Bulk (HPLC) ([5]; 50° C.): 0.06%; Bulk (XRPD) [5]: Bulk (XRPD): No change; CL (color) ([5]; 80° C.): No change; DP (%) degradation products, Bulk (HPLC) ([5]; 80° C.): 0.06% |
| 0.0000% | 0.0000% | 0.0153% | −0.0019% | 0.0307% | 0.0038% | 0.0939% | 0.0383% | 0.0996% | 0.0632% | 0.1130% | 0.0843% | 0.0958% | 0.1590% | 0.1322% | 0.1897% | 0.1590% | 0.1935% | 0.2107% | No change | Cc1ccc(-c2noc([C@H]3C[C@@H]3F)n2)cc1NC(=O)c1cnc2ccccn12 [fumaric acid co-crystal, N-(5-(5-((1R,2S)-2-fluorocyclopropyl)-1,2,4-oxadiazol-3-yl)-2-methylphenyl)imidazo[1,2-a]pyridine-3-carboxamide fumaric acid co-crystal] | Change in solid state [3]: no change in solid state; Bulk (XRPD) [4]: Bulk (XRPD): No change; CL (color) [4]: No change; DP (%) degradation products, Bulk (HPLC) [4]: 0.10%; CL (color) ([5]; 50° C.): No change; DP (%) degradation products, Bulk (HPLC) ([5]; 50° C.): 0.11%; Bulk (XRPD) [5]: Bulk (XRPD): No change; CL (color) ([5]; 80° C.): No change; DP (%) degradation products, Bulk (HPLC) ([5]; 80° C.): 0.09% |
